pIC50: −log10 of the molar value. *1 amine or outer side, *2 acyl side, *3 side chain or, on linkers, in order; H or OH if unused. Where a SMILES comes first, the peptide text is derived from it. Bridges are numbered along the chain shown (N, C = ends). [ ]: non-standard residue; d: D form. Phe(3,4,5-F3) = N[C@@H](Cc1cc(F)c(F)c(F)c1)C(=O)O; d(cisHyp) = O=C(O)[C@H]1C[C@@H](O)CN1; NMeF = CN[C@@H](Cc1ccccc1)C(=O)O; X1 = O=C([C@H]1COCCN1[*:1])[*:2]; dPip(4-aza) = O=C(O)[C@H]1CNCCN1; NMeE = CN[C@@H](CCC(=O)O)C(=O)O; NMeNle = CCCC[C@H](NC)C(=O)O; hSer = N[C@@H](CCO)C(=O)O; Orn = NCCC[C@H](N)C(=O)O
Each compound was assayed against T1, Human PD-L1/PD-1 (Homo sapiens, UniProt Q9NZQ7) (assay: HTRF Human PD-L1/PD-1 binding assay (PD-1-Ig/PD-L1-His)). Conditions: PD-L1-His 10 nM, PD-1-Ig 20 nM; class symbol; read-out: HTRF Human PD-L1/PD-1 Binding Assay IC50 Range.
T1 construct: TVMV protease cleavage site (C); made in house; host or cells: HEK293T cells
T1 sequence (Q9NZQ7 with tags, fused parts or gaps): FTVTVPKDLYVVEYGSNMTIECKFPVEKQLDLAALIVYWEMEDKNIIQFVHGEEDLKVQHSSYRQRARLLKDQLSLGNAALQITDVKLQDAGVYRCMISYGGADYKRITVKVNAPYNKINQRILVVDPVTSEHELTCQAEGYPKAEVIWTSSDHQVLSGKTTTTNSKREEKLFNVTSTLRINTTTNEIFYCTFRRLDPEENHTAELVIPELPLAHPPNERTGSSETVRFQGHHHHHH
Procedure, shortened: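 Competition of macrocyclic peptides for PD-1/PD-L1 binding measured by HTRF in dPBS containing 0.1% BSA and 0.05% Tween-20. Compound and PD-L1-His (10 nM final) incubated 15 min before PD-1-Ig (20 nM final) and a further 15 min.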
`CCCC[C@H]1C(=O)N2C[C@H](O)C[C@@H]2C(=O)N[C@@H](CC(=O)O)C(=O)N[C@@H](C(C)C)C(=O)N(C)[C@@H](Cc2ccccc2)C(=O)N[C@@H](CCCN)C(=O)N2CCNC[C@@H]2C(=O)N[C@@H](Cc2c[nH]c3ccccc23)C(=O)N[C@@H](Cc2ccc(O)cc2)C(=O)N[C@@H](CCO)C(=O)N[C@H](C(=O)NCC(N)=O)CSCC(=O)N[C@@H](Cc2cc(F)c(F)c(F)c2)C(=O)N(C)[C@@H](Cc2ccccc2)C(=O)N1C` [Example 10169] ({CH2CO}-[Phe(3,4,5-F3)][NMeF][NMeNle][d(cisHyp)]DV[NMeF][Orn][dPip(4-aza)]WY[hSer]CG-NH2; thioether N-13) was tested, and the pIC50 was 8.00 to 9.00. `CCCC[C@H]1C(=O)N2CCC[C@@H]2C(=O)N[C@@H](CC(=O)O)C(=O)N[C@@H](C(C)C)C(=O)N(C)[C@@H](Cc2ccccc2)C(=O)N[C@@H](CC(=O)O)C(=O)N2CCC[C@@H]2C(=O)N[C@@H](Cc2c[nH]c3ccccc23)C(=O)N[C@@H](Cc2ccc(O)cc2)C(=O)N[C@@H](CCO)C(=O)N[C@H](C(=O)NCC(N)=O)CSCC(=O)N[C@@H](Cc2cc(F)c(F)c(F)c2)C(=O)N(C)[C@@H](Cc2ccccc2)C(=O)N1C` [Example 10170] ({CH2CO}-[Phe(3,4,5-F3)][NMeF][NMeNle][dP]DV[NMeF]D[dP]WY[hSer]CG-NH2; thioether N-13) was tested, and the pIC50 was 8.00 to 9.00. `CCCC[C@H]1C(=O)N2CCC[C@@H]2C(=O)N[C@@H](CC(=O)O)C(=O)N[C@@H](C(C)C)C(=O)N(C)[C@@H](Cc2ccccc2)C(=O)N[C@@H](CC(=O)O)C(=O)N2CCC[C@@H]2C(=O)N[C@@H](Cc2c[nH]c3ccccc23)C(=O)N[C@@H](Cc2ccc(O)cc2)C(=O)N[C@@H](CCCCN)C(=O)N[C@H](C(=O)NCC(N)=O)CSCC(=O)N[C@@H](Cc2cc(F)c(F)c(F)c2)C(=O)N(C)[C@@H](Cc2ccccc2)C(=O)N1C` [Example 10171] ({CH2CO}-[Phe(3,4,5-F3)][NMeF][NMeNle][dP]DV[NMeF]D[dP]WYKCG-NH2; thioether N-13) was tested, and the pIC50 was 7.00 to 8.00. In the case of `CCCC[C@H]1C(=O)N2CCC[C@@H]2C(=O)N[C@@H](CC(=O)O)C(=O)N[C@@H](C(C)C)C(=O)N(C)[C@@H](Cc2ccccc2)C(=O)N[C@@H](CC(=O)O)C(=O)N2C[C@H](O)C[C@@H]2C(=O)N[C@@H](Cc2c[nH]c3ccccc23)C(=O)N[C@@H](Cc2ccc(O)cc2)C(=O)N[C@@H](CCO)C(=O)N[C@H](C(=O)NCC(N)=O)CSCC(=O)N[C@@H](Cc2cc(F)c(F)c(F)c2)C(=O)N(C)[C@@H](Cc2ccccc2)C(=O)N1C` [Example 10172] ({CH2CO}-[Phe(3,4,5-F3)][NMeF][NMeNle][dP]DV[NMeF]D[d(cisHyp)]WY[hSer]CG-NH2; thioether N-13), the pIC50 was 7.00 to 8.00. `CCCC[C@H]1C(=O)N2C[C@H](O)C[C@@H]2C(=O)N[C@@H](CC(=O)O)C(=O)N[C@@H](C(C)C)C(=O)N(C)[C@@H](Cc2ccccc2)C(=O)N[C@@H](CC(=O)O)C(=O)N2C[C@H](O)C[C@@H]2C(=O)N[C@@H](Cc2c[nH]c3ccccc23)C(=O)N[C@@H](Cc2ccc(O)cc2)C(=O)N[C@@H](CCO)C(=O)N[C@H](C(=O)NCC(N)=O)CSCC(=O)N[C@@H](Cc2cc(F)c(F)c(F)c2)C(=O)N(C)[C@@H](Cc2ccccc2)C(=O)N1C` [Example 10173] ({CH2CO}-[Phe(3,4,5-F3)][NMeF][NMeNle][d(cisHyp)]DV[NMeF]D[d(cisHyp)]WY[hSer]CG-NH2; thioether N-13) gave a pIC50 of 7.00 to 8.00. Compound `CCCC[C@H]1C(=O)N2CCC[C@@H]2C(=O)N[C@@H](CC(=O)O)C(=O)N[C@@H](C(C)C)C(=O)N(C)[C@@H](Cc2ccccc2)C(=O)N[C@@H](CC(=O)O)C(=O)N2C[C@H](O)C[C@@H]2C(=O)N[C@@H](Cc2c[nH]c3ccccc23)C(=O)N[C@@H](Cc2ccc(O)cc2)C(=O)N[C@@H](CCCCN)C(=O)N[C@H](C(=O)NCC(N)=O)CSCC(=O)N[C@@H](Cc2cc(F)c(F)c(F)c2)C(=O)N(C)[C@@H](Cc2ccccc2)C(=O)N1C` [Example 10174] ({CH2CO}-[Phe(3,4,5-F3)][NMeF][NMeNle][dP]DV[NMeF]D[d(cisHyp)]WYKCG-NH2; thioether N-13) has a pIC50 of 8.00 to 9.00. `CCCC[C@H]1C(=O)N2CCC[C@@H]2C(=O)N[C@@H](CC(=O)O)C(=O)N[C@@H](C(C)C)C(=O)N(C)[C@@H](Cc2ccccc2)C(=O)N[C@@H](CCCN)C(=O)N2CCC[C@@H]2C(=O)N[C@@H](Cc2c[nH]c3ccccc23)C(=O)N[C@@H](Cc2ccc(O)cc2)C(=O)N[C@@H](CCO)C(=O)N[C@H](C(=O)NCC(N)=O)CSCC(=O)N[C@@H](Cc2cc(F)c(F)c(F)c2)C(=O)N(C)[C@@H](Cc2ccccc2)C(=O)N1C` [Example 10175] ({CH2CO}-[Phe(3,4,5-F3)][NMeF][NMeNle][dP]DV[NMeF][Orn][dP]WY[hSer]CG-NH2; thioether N-13) gave a pIC50 of 8.00 to 9.00. In the case of `CCCC[C@H]1C(=O)N2C[C@H](O)C[C@@H]2C(=O)N[C@@H](CC(=O)O)C(=O)N[C@@H](C(C)C)C(=O)N(C)[C@@H](Cc2ccccc2)C(=O)N[C@@H](Cc2ccc(O)cc2)C(=O)N2CCOC[C@@H]2C(=O)N[C@@H](Cc2c[nH]c3ccccc23)C(=O)N[C@@H](Cc2ccc(O)cc2)C(=O)N[C@@H](CC(C)C)C(=O)N[C@H](C(=O)NCC(N)=O)CSCC(=O)N[C@@H](Cc2cc(F)c(F)c(F)c2)C(=O)N(C)[C@@H](CCC(=O)O)C(=O)N1C` [Example 10177] ({CH2CO}-[Phe(3,4,5-F3)][NMeE][NMeNle][d(cisHyp)]DV[NMeF]Y[X1]WYLCG-NH2; thioether N-13), the pIC50 was 7.00 to 8.00. `CCCC[C@H]1C(=O)N2C[C@H](O)C[C@@H]2C(=O)N[C@@H](CC(=O)O)C(=O)N[C@@H](C(C)C)C(=O)N(C)[C@@H](Cc2ccccc2)C(=O)N[C@@H](CCC(=O)O)C(=O)N2CCOC[C@@H]2C(=O)N[C@@H](Cc2c[nH]c3ccccc23)C(=O)N[C@@H](Cc2ccc(O)cc2)C(=O)N[C@@H](CCOC)C(=O)N[C@H](C(=O)NCC(N)=O)CSCC(=O)N[C@@H](Cc2cc(F)c(F)c(F)c2)C(=O)N(C)[C@@H](Cc2ccccc2)C(=O)N1C` [Example 10178] ({CH2CO}-[Phe(3,4,5-F3)][NMeF][NMeNle][d(cisHyp)]DV[NMeF]E[X1]WY[hSer](Me)CG-NH2; thioether N-13) showed a pIC50 of 8.00 to 9.00. For `CCCC[C@H]1C(=O)N2C[C@H](O)C[C@@H]2C(=O)N[C@@H](CC(=O)O)C(=O)N[C@@H](C(C)C)C(=O)N(C)[C@@H](Cc2ccccc2)C(=O)N[C@@H](Cc2ccc(O)cc2)C(=O)N2CCOC[C@@H]2C(=O)N[C@@H](Cc2c[nH]c3ccccc23)C(=O)N[C@@H](Cc2ccc(OC)cc2)C(=O)N[C@@H](CCOC)C(=O)N[C@H](C(=O)NCC(N)=O)CSCC(=O)N[C@@H](Cc2cc(F)c(F)c(F)c2)C(=O)N(C)[C@@H](Cc2ccccc2)C(=O)N1C` [Example 10179] ({CH2CO}-[Phe(3,4,5-F3)][NMeF][NMeNle][d(cisHyp)]DV[NMeF]Y[X1]WY(Me)[hSer](Me)CG-NH2; thioether N-13), the pIC50 was 7.00 to 8.00. `CCCC[C@H]1C(=O)N2C[C@H](O)C[C@@H]2C(=O)N[C@@H](CC(=O)O)C(=O)N[C@@H](C(C)C)C(=O)N(C)[C@@H](Cc2ccccc2)C(=O)N[C@@H](Cc2ccc(OC)cc2)C(=O)N2CCOC[C@@H]2C(=O)N[C@@H](Cc2c[nH]c3ccccc23)C(=O)N[C@@H](Cc2ccc(O)cc2)C(=O)N[C@@H](CCOC)C(=O)N[C@H](C(=O)NCC(N)=O)CSCC(=O)N[C@@H](Cc2cc(F)c(F)c(F)c2)C(=O)N(C)[C@@H](Cc2ccccc2)C(=O)N1C` [Example 10180] ({CH2CO}-[Phe(3,4,5-F3)][NMeF][NMeNle][d(cisHyp)]DV[NMeF]Y(Me)[X1]WY[hSer](Me)CG-NH2; thioether N-13) showed a pIC50 of 7.00 to 8.00. In the case of `CCCC[C@H]1C(=O)N2CCC[C@@H]2C(=O)N[C@@H](CC(=O)O)C(=O)N[C@@H](C(C)C)C(=O)N(C)[C@@H](Cc2ccccc2)C(=O)N[C@@H](Cc2ccc(O)cc2)C(=O)N2C[C@H](O)C[C@@H]2C(=O)N[C@@H](Cc2c[nH]c3ccccc23)C(=O)N[C@@H](Cc2ccc(O)cc2)C(=O)N[C@@H](CCOC)C(=O)N[C@H](C(=O)NCC(N)=O)CSCC(=O)N[C@@H](Cc2cc(F)c(F)c(F)c2)C(=O)N(C)[C@@H](Cc2ccccc2)C(=O)N1C` [Example 10181] ({CH2CO}-[Phe(3,4,5-F3)][NMeF][NMeNle][dP]DV[NMeF]Y[d(cisHyp)]WY[hSer](Me)CG-NH2; thioether N-13), the pIC50 was 8.00 to 9.00. With `CCCC[C@H]1C(=O)N2CCC[C@@H]2C(=O)N[C@@H](CC(=O)O)C(=O)N[C@@H](C(C)C)C(=O)N(C)[C@@H](Cc2ccccc2)C(=O)N[C@@H](CCCN)C(=O)N2C[C@H](O)C[C@@H]2C(=O)N[C@@H](Cc2c[nH]c3ccccc23)C(=O)N[C@@H](Cc2ccc(O)cc2)C(=O)N[C@@H](CCOC)C(=O)N[C@H](C(=O)NCC(N)=O)CSCC(=O)N[C@@H](Cc2cc(F)c(F)c(F)c2)C(=O)N(C)[C@@H](Cc2ccccc2)C(=O)N1C` [Example 10182] ({CH2CO}-[Phe(3,4,5-F3)][NMeF][NMeNle][dP]DV[NMeF][Orn][d(cisHyp)]WY[hSer](Me)CG-NH2; thioether N-13) the pIC50 was 8.00 to 9.00.

Same assay, conditions: PD-L1-His 10 nM, PD-1-Ig 20 nM; read-out: HTRF Human PD-L1/PD-1 Binding Assay IC50
`CC(C)C[C@@H]1NC(=O)[C@H](Cc2ccc(O)cc2)NC(=O)[C@H](Cc2c[nH]c3ccccc23)NC(=O)[C@H]2COCCN2C(=O)[C@H](Cc2ccc(O)cc2)NC(=O)[C@H](Cc2ccccc2)N(C)C(=O)[C@H](C(C)C)NC(=O)[C@H](CC(=O)O)NC(=O)[C@H]2C[C@@H](O)CN2C(=O)[C@H](CCC(=O)O)N(C)C(=O)[C@H](Cc2ccccc2)N(C)C(=O)[C@H](Cc2cc(F)c(F)c(F)c2)NC(=O)CSC[C@@H](C(=O)NCC(N)=O)NC1=O` [Example 10176] ({CH2CO}-[Phe(3,4,5-F3)][NMeF][NMeE][d(cisHyp)]DV[NMeF]Y[X1]WYLCG-NH2; thioether N-13) gave a pIC50 of 7.96.

— US10538555B2, “Macrocyclic inhibitors of the PD-1/PD-L1 and CD80(B7-1)/PD-L1 protein/protein interactions” (BRISTOL-MYERS SQUIBB COMPANY, priority 2014, dated 2020)
